Broadly, the IC50 is the point on the concentration scale where inhibition reaches its midpoint.

The target of experiment [1] is T1, P2X4 (Homo sapiens, UniProt Q99571).
T1 sequence (Q99571 1-388): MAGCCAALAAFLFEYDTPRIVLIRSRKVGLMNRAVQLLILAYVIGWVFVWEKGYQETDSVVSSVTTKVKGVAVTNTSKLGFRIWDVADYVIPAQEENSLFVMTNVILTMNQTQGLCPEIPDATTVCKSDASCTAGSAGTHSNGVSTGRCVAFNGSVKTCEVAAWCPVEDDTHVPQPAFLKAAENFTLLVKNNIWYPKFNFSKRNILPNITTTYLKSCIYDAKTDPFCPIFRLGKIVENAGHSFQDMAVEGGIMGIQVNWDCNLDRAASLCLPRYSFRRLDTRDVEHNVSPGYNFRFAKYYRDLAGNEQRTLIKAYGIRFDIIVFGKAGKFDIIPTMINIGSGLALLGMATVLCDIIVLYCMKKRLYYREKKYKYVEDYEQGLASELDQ
In words: Assay A: human P2X4 receptor cell line, FLIPR calcium assay (Fluo-8, agonist Bz-ATP at EC80). To be noted: HEK human P2X4 cells, Fluo-8 FLIPR; for Emax: percentage of maximal inhibition, read-out: human P2X4 Assay A avg Efficacy; for IC50: Bz-ATP at EC80, average values. More on the design: host or cells: HEK 293 (recombinant, constitutively expressing; with mitochondrial photina in Assay B). The format is cell-based. The procedure: A fluorescent imaging plate reader (FLEX/FLIPR station; Molecular Devices) was used to monitor intracellular calcium levels using the calcium-chelating dye Fluo-8 (Molecular Probes). […] Cells expressing purinergic receptors human P2X4 (HEK human P2X4: PerkinElmer, Product No.: AX-015-PCF) were plated at a density of 20,000 cells/well in poly-D-lysine-coated 384-well plates approximately 20 hours before beginning the assay. On the day of the assay, the medium was removed and 30 μl of dye buffer (Hank's balanced salt solution, 10 mM HEPES, 1.8 mM CaCl2), 1 mM MgCl2, 2 mM probenecid, 5 mM D-glucose monohydrate, 5 μM Fluo-8, pH=7.4) was added for 30 min at […] and 5% CO2. The antagonist in probenecid buffer (Hank's balanced salt solution, 10 mM HEPES, 1.8 mM CaCl2, 1 mM MgCl2, 2 mM probenecid, 5 mM D-glucose monohydrate, pH=7.4) was added in a volume of 10 μl and allowed to incubate for 30 min at room temperature. The final assay DMSO concentration is 0.5%. The agonist, Bz-ATP, is added in a volume of 10 μl at a concentration representing the EC80 value. The fluorescence was measured for an interval of 120 sec at 2 sec intervals and analyzed based on the increase in peak relative fluorescence units (RFU) compared to the basal fluorescence. Peak fluorescence was used to determine the response to agonist obtained at each concentration of antagonist by the following equation:
% Response=100*(RFU(drug)−RFU(control))/(RFU(DMSO)−RFU(control))
The compounds were tested in triplicates per plate and mean values were plotted in Excel XLFit to determine IC50 values, percentage of maximal inhibition and the Hill coefficients.

For experiment [2], the target named is T1, P2X4. In words: Assay B: human P2X4 receptor cell line, mitochondrial photina luminescence (agonist Bz-ATP at EC50). Also noted: host or cells: HEK 293 (recombinant, constitutively expressing; with mitochondrial photina in Assay B). To be noted: HEK human P2X4 cell line, photina luminescence, agonist Bz-ATP at EC50, average; for Emax: read-out: human P2X4 Assay B avg Efficacy. The format is cell-based. The method in brief: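 Bz-ATP at its EC50 activates human P2X4 stably expressed in a cell line that also carries the calcium-sensitive photoprotein mitochondrial photina (coelenterazine cofactor). Light emitted on calcium influx is measured straight away in a luminometer. Reduced luminescence indicates antagonism.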

“And” between values parts separate entries of the source, which are not always exact repeats. Identical values can stand only once. A value given as a limit tells only on which side of the number the result lay.

For the molecule `NS(=O)(=O)c1cc(NC(=O)Cc2ccc(Cl)cc2)ccc1Oc1cccc(Cl)c1` [Example 180, N-[4-(3-Chlorophenoxy)-3-sulfamoylphenyl]-2-(4-chlorophenyl)acetamide], the Emax is 76% at P2X4 [1] and 63% at P2X4 [2].
In the same order, the values of `CC(C)(O)c1ccc(Oc2ccc(NC(=O)Cc3ccccc3Cl)cc2S(N)(=O)=O)cc1` [Example 264, 2-(2-Chlorophenyl)-N-{4-[4-(2-hydroxypropan-2-yl)phenoxy]-3-sulfamoylphenyl}acetamide] are 62% and 80%.
For `NS(=O)(=O)c1cc(NC(=O)Cc2c(Cl)ccc3c2CCO3)ccc1Oc1cccc(Cl)c1` [Example 278, 2-(5-Chloro-2,3-dihydro-1-benzofuran-4-yl)-N-[4-(3-chlorophenoxy)-3-sulfamoylphenyl]acetamide], at P2X4 [1], the IC50 is 139 nM and the Emax came out at 82%. Further, at P2X4 [2], the half-maximal inhibitory concentration (IC50) was determined as 180 nM and the Emax was 65%.
In the same order, the values of `NS(=O)(=O)c1cc(NC(=O)Cc2ccccc2Cl)c(Cl)cc1Oc1cccc(Cl)c1` [Example 082, N-[2-chloro-4-(3-chlorophenoxy)-5-sulfamoylphenyl]-2-(2-chlorophenyl)acetamide] are over 25000 nM, 31%, over 50000 nM and 33%.
Turning to `NS(=O)(=O)c1cc(NC(=O)Cc2cccc(F)c2Cl)ccc1OCC1CCOCC1` [Example 167, 2-(2-Chloro-3-fluorophenyl)-N-[3-sulfamoyl-4-(tetrahydro-2H-pyran-4-ylmethoxy)phenyl]acetamide], the Emax at P2X4 [1] stood at 87%; on P2X4 [2] it was 80%.
As for `N#Cc1cc(Oc2ccc(NC(=O)Cc3ccccc3Cl)cc2S(N)(=O)=O)ccc1F` [Example 047, 2-(2-Chlorophenyl)-N-[4-(3-cyano-4-fluorophenoxy)-3-sulfamoylphenyl]acetamide], the IC50 came to 7 nM on P2X4 [1] and 862 nM on P2X4 [2]. The Emax amounted to 69% at P2X4 [1] and 57% at P2X4 [2].
With `NS(=O)(=O)c1cc(NC(=O)Cc2ccccc2Cl)cnc1Oc1cccc(C(F)(F)F)c1` [Example 168, 2-(2-chlorophenyl)-N-{5-sulfamoyl-6-[3-(trifluoromethyl)phenoxy]pyridin-3-yl}acetamide], on P2X4 [1], the 50% inhibitory concentration (IC50) was 86 nM and the Emax was 90%. In addition, at P2X4 [2], the half-inhibitory concentration (IC50) was 181 nM and the Emax came to 85%.
As for `NS(=O)(=O)c1cc(NC(=O)Cc2ccccc2Cl)ccc1OC1CCCCC1` [Example 200, 2-(2-Chlorophenyl)-N-[4-(cyclohexyloxy)-3-sulfamoylphenyl]acetamide], the figures for the Emax on P2X4 [1] and at P2X4 [2] were 86% and 83%, respectively.
In the case of `NS(=O)(=O)c1cc(NC(=O)Cc2cc(OC(F)(F)C(F)F)ccc2Cl)ccc1Oc1cccc(Cl)c1` [Example 134, N-[4-(3-Chlorophenoxy)-3-sulfamoylphenyl]-2-[2-chloro-5-(1,1,2,2-tetrafluoroethoxy)phenyl]acetamide], at P2X4 [1], the IC50 came out at 688 nM and the Emax stood at 83%. At P2X4 [2], the IC50 turned out to be 1350 nM and the Emax was determined as 77%.
Regarding `NS(=O)(=O)c1cc(NC(=O)Cc2ccccc2Cl)ccc1OCCc1ccccc1` [Example 155, 2-(2-Chlorophenyl)-N-[4-(2-phenylethoxy)-3-sulfamoylphenyl]acetamide], the figures for the Emax on P2X4 [1] and on P2X4 [2] were 87% and 65%, respectively.
In the case of `N#Cc1cccc(COc2ccc(NC(=O)Cc3ccccc3Cl)cc2S(N)(=O)=O)c1` [Example 142, 2-(2-Chlorophenyl)-N-{4-[(3-cyanobenzyl)oxy]-3-sulfamoylphenyl}acetamide], on P2X4 [1], the concentration for half-maximal inhibition (IC50) was determined as 43 nM and the Emax was determined as 90%. Moreover, at P2X4 [2], the IC50 was 60 nM and the Emax is 70%.
In the case of `Cc1cccc(Oc2ccc(NC(=O)Cc3ccccc3Cl)cc2S(N)(=O)=O)c1` [Example 018, 2-(2-Chlorophenyl)-N-[4-(3-methylphenoxy)-3-sulfamoylphenyl]acetamide], on P2X4 [1], the IC50 came out at 9 nM and the Emax came to 93%. Moreover, at P2X4 [2], the half-maximal inhibitory concentration (IC50) was found to be 47 nM and the Emax was 70%.
Take `NS(=O)(=O)c1cc(NC(=O)Cc2ccccc2Cl)ccc1Oc1cccc(F)c1` [Example 011, 2-(2-Chlorophenyl)-N-[4-(3-fluorophenoxy)-3-sulfamoylphenyl]acetamide]: at P2X4 [1], the IC50 turned out to be 41 nM and the Emax came out at 85%. On P2X4 [2], the IC50 is 43 nM and the Emax was 67%.
On the same counts, the results for `NS(=O)(=O)c1cc(NC(=O)Cc2ccccc2Cl)ccc1Oc1ccc(Cl)cc1` [Example 066, N-[4-(4-Chlorophenoxy)-3-sulfamoylphenyl]-2-(2-chlorophenyl)acetamide] are over 25000 nM, 51%, 129 nM and 46%.
On to `CS(=O)(=O)c1cccc(Oc2ccc(NC(=O)Cc3ccccc3Cl)cc2S(N)(=O)=O)c1` [Example 016, 2-(2-Chlorophenyl)-N-{4-[3-(methylsulfonyl)phenoxy]-3-sulfamoylphenyl}acetamide], for which, on P2X4 [1], the IC50 was 96 nM and the Emax is 81%. On P2X4 [2], the IC50 amounted to 112 nM and the Emax is 72%.
On the same counts, the results for `CC1(C)CC(Oc2ccc(NC(=O)Cc3ccccc3Cl)cc2S(N)(=O)=O)CC(C)(C)O1` [Example 269, 2-(2-Chlorophenyl)-N-{3-sulfamoyl-4-[(2,2,6,6-tetramethyltetrahydro-2H-pyran-4-yl)oxy]phenyl}acetamide] are over 25000 nM, 37%, over 50000 nM and 14%.
Regarding `NS(=O)(=O)c1cc(NC(=O)Cc2c(Cl)ccc(C3CC3)c2Cl)ccc1Oc1cccc(Cl)c1` [Example 129, N-[4-(3-Chlorophenoxy)-3-sulfamoylphenyl]-2-(2,6-dichloro-3-cyclopropylphenyl)acetamide], the IC50 is 1170 nM on P2X4 [1] and 1300 nM at P2X4 [2]. In addition, the Emax stood at 83% on P2X4 [1] and 69% on P2X4 [2].
On the same counts, the results for `NS(=O)(=O)c1cc(NC(=O)Cc2ccccc2Cl)ccc1Oc1cccc(Br)c1` [Example 059, N-[4-(3-Bromophenoxy)-3-sulfamoylphenyl]-2-(2-chlorophenyl)acetamide] are 45 nM, 75 nM, 85% and 70%.
For `NS(=O)(=O)c1cc(NC(=O)Cc2ccccc2Cl)ccc1OC[C@H]1[C@@H]2COC[C@@H]21` [Example 266, 2-(2-Chlorophenyl)-N-{4-[(1R,5S,6r)-3-oxabicyclo[3.1.0]hex-6-ylmethoxy]-3-sulfamoylphenyl}acetamide], at P2X4 [1], the IC50 came out at 63 nM and the Emax was 89%.
For the molecule `NS(=O)(=O)c1cc(NC(=O)Cc2ccccc2Cl)cc(F)c1Oc1cccc(Cl)c1` [Example 291, N-[4-(3-Chlorophenoxy)-3-fluoro-5-sulfamoylphenyl]-2-(2-chlorophenyl)acetamide], at P2X4 [1], the IC50 was 10500 nM and > 25000 nM; the Emax is 57%.
For `NS(=O)(=O)c1cc(NC(=O)Cc2cc(F)ccc2Cl)cnc1Oc1cccc(Cl)c1` [Example 296, 2-(2-Chloro-5-fluorophenyl)-N-[6-(3-chlorophenoxy)-5-sulfamoylpyridin-3-yl]-acetamide], at P2X4 [1], the half-inhibitory concentration (IC50) came out at 59 nM and the Emax came out at 78%.
Turning to `NS(=O)(=O)c1cc(NC(=O)Cc2ccccc2C(F)F)cnc1Oc1cccc(Cl)c1` [Example 295, N-[6-(3-Chlorophenoxy)-5-sulfamoylpyridin-3-yl]-2-[2-(difluoromethyl)phenyl]-acetamide], on P2X4 [1], the IC50 was 155 nM and the Emax was found to be 85%.

The values are drawn from patent US20180338980A1, “AROMATIC SULFONAMIDE DERIVATIVES” (BAYER PHARMA AKTIENGESELLSCHAFT, priority 2015, published 2018).
